Experimental data: patent publication US9028806B2, “Method for impregnation with supercritical CO2” (Pierre Fabre Medicament, priority 2009, dated 2015)

Key:
[1] = Dissolution kinetics of vinflunine in pH 6.8 buffer; type: physicochemical; conditions: equivalent to 50 mg vinflunine in 50 ml pH 6.8 buffer, 400 rpm
Experimental: In a 100 ml Erlenmeyer, introduce an accurately measured test sample equivalent to 50 mg of vinflunine. Add 50 ml of pH 6.8 buffer. Place under magnetic stirring at 400 rpm. Take a 2 ml sample under magnetic stirring at 15, 30, 60 and 120 minutes. Filter these samples on Gelman GHP Acrodisc 0.45 μm polypropylene filters. The solution should be clear.
Determine the vinflunine content by means of liquid chromatography.

[2] = Exploratory Pk on rats, oral route (bioavailability)
Experimental: The study was conducted with exploratory Pk on rats: 2 mg/kg in a single dose, oral route
Administration vehicle: distilled water (Aguettant)
Positive more Electrospray (ESI+) detection LC/MS/MS (liquid chromatography/mass spectrometry/mass spectrometry) bioanalysis method
Pharmacokinetic analysis with Kinetica (Thermo Instruments, US)

[3] = Dissolution kinetics of ketoprofen in water at 37° C.; type: physicochemical; conditions: equivalent to 50 mg ketoprofen in 50 ml water, 400 rpm
Experimental: In a 100 ml Erlenmeyer, introduce an accurately measured test sample equivalent to 50 mg of ketoprofen, pure or impregnating the cross-linked PVP. Add 50 ml of water. Place under magnetic stirring at 400 rpm in a water bath at 37° C.+/−2° C. […] Filter these samples on Gelman GHP Acrodisc 0.45 μm polypropylene filters. The solution should be clear.
Determine the ketoprofen content by means of liquid chromatography.

SMILES	Vinflunine Dissolution 15 min ([1]; 15 min) [µg/mL]	Vinflunine Dissolution 30 min ([1]; 30 min) [µg/mL]	Vinflunine Dissolution 60 min ([1]; 60 min) [µg/mL]	Vinflunine Dissolution 120 min ([1]; 120 min) [µg/mL]	CL ([2]; fasted rats, 2 mg/kg single dose, oral route) [L/h]	Vinflunine level at 0 ([2]; fasted rats, 2 mg/kg single dose, oral route, time 0)	Vinflunine level at 0.25 ([2]; fasted rats, 2 mg/kg single dose, oral route, time 0.25)	Vinflunine level at 0.5 ([2]; fasted rats, 2 mg/kg single dose, oral route, time 0.5)	Vinflunine level at 1 ([2]; fasted rats, 2 mg/kg single dose, oral route, time 1)	Vinflunine level at 2 ([2]; fasted rats, 2 mg/kg single dose, oral route, time 2)	Vinflunine level at 4 ([2]; fasted rats, 2 mg/kg single dose, oral route, time 4)	Vinflunine level at 6 ([2]; fasted rats, 2 mg/kg single dose, oral route, time 6)	Vinflunine level at 8 ([2]; fasted rats, 2 mg/kg single dose, oral route, time 8)	Vinflunine level at 24 ([2]; fasted rats, 2 mg/kg single dose, oral route, time 24)	AUC(0-t) ([2]; rat, in vivo, po, 2 mg/kg) [ng·h/mL]	Cmax ([2]; rat, in vivo, po, 2 mg/kg) [ng/mL]	Tmax ([2]; rat, in vivo, po, 2 mg/kg) [h]	half-life ([2]; rat, in vivo, po, 2 mg/kg) [h]	Ketoprofen Dissolution 15 min ([3]; 15 min) [µg/mL]	Ketoprofen Dissolution 60 min ([3]; 60 min) [µg/mL]
CC[C@]12C=CCN3CC[C@@]4(c5cc([C@@]6(C(=O)OC)C[C@@H]7C[C@@H](C(C)(F)F)CN(Cc8c6[nH]c6ccccc86)C7)c(OC)cc5N(C)[C@H]4[C@@](O)(C(=O)OC)[C@@H]1OC(C)=O)[C@@H]32 [Vinflunine base, Vinflunine]	252	387	520	606	8.70	0	19.37	11.75	17.90	14.93	13.80	12.03	10.88	2.59	200	19.4	0.25	7.9		
CC(C(=O)O)c1cccc(C(=O)c2ccccc2)c1 (centres unmarked) [ketoprofen, Ketoprofen]																			173	171
